# Test results published in the supplement of paper PMC10307832.
# Columns and labels:
# Assay in all cases: relative viability (nuclei count vs DMSO), 5 days (fraction); higher = more cells survive
# [1] = compound: Cc1cnc(CNC(=O)c2c(=O)c3ccc(N4CCCN(C)CC4)nc3n3c2sc2ccccc23)cn1 [CX-5461] + Cc1cc(Nc2cc(N3CCN(C)CC3)nc(Sc3ccc(NC(=O)C4CC4)cc3)n2)n[nH]1 [Tozasertib] (partner 0.1 µM)
# Method in brief: (§1)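 Nuclei were stained with Hoechst during a one-step fixation (final 0.05% Triton X-100, 1% formaldehyde, 1 ug/ml Hoechst) carried out 5 days after dosing, then counted on 4× images. The cells, lung cancer lines in 1536-well plates, had been dosed by pin tool the day after seeding with one drug alone or a fixed anchor-drug dose plus five library-drug doses (not always all listed) in √10 steps. Relative viability is the nuclei count in treated wells divided by that in vehicle wells, and each value is the median of duplicate plates.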
# [2] = compound: O=C(Nc1cc(C(F)(F)F)cc(C(F)(F)F)c1)c1cc(Cl)ccc1O [IMD-0354] + CC(C)C[C@H](NC(=O)[C@H](Cc1ccccc1)NC(=O)c1cnccn1)B(O)O [Bortezomib] (partner 0.002 µM)
# Method in brief: as §1
# [3] = compound: O=C(Nc1cc(C(F)(F)F)cc(C(F)(F)F)c1)c1cc(Cl)ccc1O [IMD-0354] + COc1cc2c(Oc3ccc(NC(=O)C4(C(=O)Nc5ccc(F)cc5)CC4)cc3F)ccnc2cc1OCCCN1CCOCC1 [Foretinib] (partner 0.25 µM)
# Method in brief: as §1
# [4] = compound: O=C(Nc1cc(C(F)(F)F)cc(C(F)(F)F)c1)c1cc(Cl)ccc1O [IMD-0354] + C[C@]1(O)C[C@@H](c2nc(-c3ccc4ccc(-c5ccccc5)nc4c3)c3c(N)nccn32)C1 [Linsitinib] (partner 1 µM)
# Method in brief: as §1
Cell Line,relative viability ([1]; first compound 0.01 µM),relative viability ([1]; first compound 0.03162 µM),relative viability ([1]; first compound 0.1 µM),relative viability ([1]; first compound 0.3162 µM),relative viability ([1]; first compound 1 µM),relative viability ([2]; first compound 0.04 µM),relative viability ([2]; first compound 0.1265 µM),relative viability ([2]; first compound 0.4 µM),relative viability ([2]; first compound 1.265 µM),relative viability ([2]; first compound 4 µM),relative viability ([3]; first compound 0.04 µM),relative viability ([3]; first compound 0.1265 µM),relative viability ([3]; first compound 0.4 µM),relative viability ([3]; first compound 1.265 µM),relative viability ([3]; first compound 4 µM),relative viability ([4]; first compound 0.04 µM),relative viability ([4]; first compound 0.1265 µM),relative viability ([4]; first compound 0.4 µM),relative viability ([4]; first compound 1.265 µM),relative viability ([4]; first compound 4 µM)
HCC-78,0.463,0.391,0.466,0.326,0.453,0.419,0.438,0.443,0.561,0.382,0.554,0.574,0.488,0.701,0.322,0.471,0.495,0.421,0.486,0.276
HCC-366,0.0846,0.0825,0.0964,0.116,0.0753,1.2,0.885,0.281,0.099,0.0336,0.837,1,0.441,0.216,0.046,0.947,0.85,0.221,0.365,0.0421
HCC-827,0.451,0.376,0.425,0.411,0.43,1.03,1.07,0.825,0.462,0.347,1.05,0.978,0.625,0.282,0.19,0.898,0.947,0.82,0.606,0.282
HOP-62,0.315,0.405,0.372,0.284,0.344,0.954,0.836,0.661,0.227,0.0871,1.13,1.03,0.42,0.449,0.118,1.02,0.898,0.48,0.93,0.206
LC-2-ad,0.377,0.446,0.469,0.411,0.364,1.02,0.991,0.385,0.129,0.119,0.939,0.885,0.524,0.249,0.205,1.02,0.844,0.369,0.108,0.123
LCLC-97TM1,0.269,0.26,0.218,,0.208,0.928,0.501,0.706,0.0804,0.242,0.929,0.824,0.673,0.34,0.164,,0.153,0.179,0.177,0.132
LCLC-103H,0.457,0.527,0.473,0.391,0.477,1.14,1.02,0.939,0.847,0.252,0.745,0.865,0.45,0.335,0.216,1.11,1.07,0.844,0.821,0.425
LOU-NH91,0.75,0.729,0.648,,0.632,0.5,0.498,0.492,0.303,0.319,0.976,0.981,0.575,0.154,0.134,0.945,0.989,0.652,0.317,0.251
LU99A,0.265,0.259,0.253,0.241,0.272,0.878,1.19,0.625,0.281,0.186,0.655,0.806,0.612,0.682,0.273,0.553,0.527,0.398,0.452,0.147
LXF-289,0.2,0.224,0.16,0.179,0.179,1.03,0.833,0.757,0.291,0.131,0.945,0.99,0.646,0.483,0.129,1.04,0.932,0.768,0.459,0.108
NCI-H23,0.311,0.429,0.334,0.362,0.568,1.09,0.906,0.542,0.208,0.219,0.969,0.955,0.49,0.265,0.232,0.643,0.646,0.425,0.318,0.19
NCI-H322M,0.441,0.508,0.49,0.503,0.443,1.28,1.35,1.12,1.43,0.264,1.12,0.907,0.716,0.31,0.402,0.973,0.909,0.793,1.09,0.319
NCI-H441,0.515,0.742,0.643,0.678,0.362,,0.848,0.218,0.15,0.0844,0.919,0.872,0.478,0.28,0.272,0.485,0.659,0.31,0.234,0.22
NCI-H460,0.523,0.584,0.462,0.227,0.0722,0.893,1.15,0.18,0.0575,0.0265,0.988,0.858,0.366,0.0865,0.026,1.2,0.709,0.278,0.0367,0.0126
NCI-H520,0.442,0.419,0.438,,0.425,0.681,0.579,0.389,0.186,0.208,1.04,0.842,0.458,0.469,0.2,1.16,0.816,0.469,0.187,0.179
NCI-H596,0.866,1.04,0.984,0.863,0.796,0.931,1.15,0.846,1.08,0.629,0.901,0.844,0.634,0.917,0.307,0.973,1.05,0.839,1.21,0.682
